The NIST ThermoML archive (doi:10.1021/acs.jced.9b00171)

Assays:
[1] = wn = mass fraction of the nth substance listed; details: 101.3 kPa, Liquid, Oscillating disk viscometry
[2] = refractive index (Na D-line) (dimensionless); wn = mass fraction of the nth substance listed; details: 101.3 kPa, Liquid, Standard Abbe refractometry

NCCNCCO [N-(2-aminoethyl)ethanolamine] + O
Details	refractive index, [2]	viscosity, [1] [mPa·s]
293.15 K, w1 = 0.05	1.3406	1.2
293.15 K, w1 = 0.1	1.3452	1.6
293.15 K, w1 = 0.15	1.351	2.02
293.15 K, w1 = 0.2	1.3582	2.58
293.15 K, w1 = 0.25	1.366	3.47
293.15 K, w1 = 0.3	1.3752	4.73
298.15 K, w1 = 0.05	1.3401	1.11
298.15 K, w1 = 0.1	1.3446	1.36
298.15 K, w1 = 0.15	1.3504	1.74
298.15 K, w1 = 0.2	1.3575	2.22
298.15 K, w1 = 0.25	1.3652	2.98
298.15 K, w1 = 0.3	1.3744	3.95
303.15 K, w1 = 0.05	1.3394	0.95
303.15 K, w1 = 0.1	1.3438	1.18
303.15 K, w1 = 0.15	1.3496	1.48
303.15 K, w1 = 0.2	1.3567	1.89
303.15 K, w1 = 0.25	1.3643	2.37
303.15 K, w1 = 0.3	1.3735	3.32
308.15 K, w1 = 0.05	1.3387	0.85
308.15 K, w1 = 0.1	1.343	1.06
308.15 K, w1 = 0.15	1.3487	1.32
308.15 K, w1 = 0.2	1.3558	1.63
308.15 K, w1 = 0.25	1.3633	2.08
308.15 K, w1 = 0.3	1.3724	2.61
313.15 K, w1 = 0.05	1.3378	0.76
313.15 K, w1 = 0.1	1.3421	0.94
313.15 K, w1 = 0.15	1.3476	1.17
313.15 K, w1 = 0.2	1.3548	1.41
313.15 K, w1 = 0.25	1.3622	1.76
313.15 K, w1 = 0.3	1.3712	2.19
318.15 K, w1 = 0.05	1.3368	0.69
318.15 K, w1 = 0.1	1.341	0.84
318.15 K, w1 = 0.15	1.3464	1.03
318.15 K, w1 = 0.2	1.3536	1.24
318.15 K, w1 = 0.25	1.361	1.53
318.15 K, w1 = 0.3	1.3698	1.86
323.15 K, w1 = 0.05	1.3358	0.64
323.15 K, w1 = 0.1	1.3398	0.77
323.15 K, w1 = 0.15	1.3451	0.92
323.15 K, w1 = 0.2	1.3523	1.08
323.15 K, w1 = 0.25	1.3597	1.28
323.15 K, w1 = 0.3	1.3682	1.59
328.15 K, w1 = 0.05	1.3347	0.59
328.15 K, w1 = 0.1	1.3385	0.7
328.15 K, w1 = 0.15	1.3436	0.82
328.15 K, w1 = 0.2	1.3508	0.95
328.15 K, w1 = 0.25	1.3582	1.11
328.15 K, w1 = 0.3	1.3664	1.35
333.15 K, w1 = 0.05	1.3335	0.55
333.15 K, w1 = 0.1	1.3371	0.64
333.15 K, w1 = 0.15	1.342	0.74
333.15 K, w1 = 0.2	1.3491	0.87
333.15 K, w1 = 0.25	1.3566	1.02
333.15 K, w1 = 0.3	1.3648	1.2
